Measurements from patent US20050049245A1, “Heteroaryl-ethanolamine derivatives as antiviral agents” (priority 2002, published 2005).
Like-named read-outs stand apart in the source and are kept apart here.

Columns and labels:
HCMV polymerase = target: T1, HCMV polymerase (Human cytomegalovirus, UniProt P08546); assay: HCMV polymerase scintillation proximity assay (SPA); type: biochemical
T1 construct: made in house; host or cells: recombinant baculovirus-infected SF-9 cells
Description: The HCMV polymerase assay is performed using a scintillation proximity assay (SPA) as described in several references, such as N. D. Cook, et al., Pharmaceutical Manufacturing International, pages 49-53 (1992); KY Takeuchi, Laboratory Practice, September issue (1992); U.S. Pat. No. 4,568,649 (1986); which are incorporated by reference herein. Reactions are performed in 96-well plates. The assay is conducted in 100 yl volume with 5.4 mM HEPES (pH 7.5), 11.7 mM KCl, 4.5 mM MgCl2, 0.36 mg/ml BSA, and 90 nM ^3H-dTTP. Assays are run with and without CHAPS, (3-[(3-Cholamidopropyl)-dimethylammonio]-1-propane-sulfonate) at a final concentration of 2 mM. HCMV polymerase is diluted in enzyme dilution buffer containing 50% glycerol, 250 mM NaCl, 10 mM HEPES (pH 7.5), 100 μg/ml BSA, and 0.01% sodium azide. The HCMV polymerase, which is expressed in recombinant baculovirus-infected SF-9 cells and purified according to literature procedures, is added at 10% (or 10 μl) of the final reaction volume, i.e., 100 μl. Compounds are diluted in 50% DMSO and 10 μl are added to each well. Control wells contain an equivalent concentration of DMSO. Unless noted otherwise, reactions are initiated via the addition of 6 nM biotinylated poly(dA)-oligo(dT) template/primer to reaction mixtures containing the enzyme, substrate, and compounds of interest. Plates are incubated in a 25° C. or 37° C. H2O bath and terminated via the addition of 40 μl/reaction of 0.5 M EDTA (pH 8) per well. Reactions are terminated within the time-frame during which substrate incorporation is linear and varied depending upon the enzyme and conditions used, i.e., 30 min. for HCMV polymerase. Ten (10) μl of streptavidin-SPA beads (20 mg/ml in PBS/10% glycerol) are added following termination of the reaction. Plates are incubated 10 min. at 37° C., then equilibrated to room temperature, and counted on a Packard Topcount. Linear regressions are performed and IC50's are calculated using computer software.
A modified version of the above HCMV polymerase assay is performed as described above, but with the following changes: Compounds are diluted in 100% DMSO until final dilution into assay buffer. In the previous assay, compounds are diluted in 50% DMSO. 4.5 mM Dithiothreitol (DTT) is added to the polymerase buffer.
All results are listed as Polymerase IC50 ([…]) values. In Table 1, the term “n.d.” refers to activity data not determined.

HSV polymerase = HSV polymerase (Human herpesvirus 1, UniProt P04293); assay: HSV polymerase assay (Table 1); type: biochemical
VZV polymerase = VZV polymerase (Varicella-zoster virus, UniProt P09252); assay: VZV polymerase assay (Table 1); type: biochemical
[1] = HCMV polymerase, SPA, read-out: Polymerase IC50 HCMV
[2] = HSV polymerase, read-out: Polymerase IC50 HSV
[3] = VZV polymerase, read-out: Polymerase IC50 VZV

T1 sequence (P08546 whole entry): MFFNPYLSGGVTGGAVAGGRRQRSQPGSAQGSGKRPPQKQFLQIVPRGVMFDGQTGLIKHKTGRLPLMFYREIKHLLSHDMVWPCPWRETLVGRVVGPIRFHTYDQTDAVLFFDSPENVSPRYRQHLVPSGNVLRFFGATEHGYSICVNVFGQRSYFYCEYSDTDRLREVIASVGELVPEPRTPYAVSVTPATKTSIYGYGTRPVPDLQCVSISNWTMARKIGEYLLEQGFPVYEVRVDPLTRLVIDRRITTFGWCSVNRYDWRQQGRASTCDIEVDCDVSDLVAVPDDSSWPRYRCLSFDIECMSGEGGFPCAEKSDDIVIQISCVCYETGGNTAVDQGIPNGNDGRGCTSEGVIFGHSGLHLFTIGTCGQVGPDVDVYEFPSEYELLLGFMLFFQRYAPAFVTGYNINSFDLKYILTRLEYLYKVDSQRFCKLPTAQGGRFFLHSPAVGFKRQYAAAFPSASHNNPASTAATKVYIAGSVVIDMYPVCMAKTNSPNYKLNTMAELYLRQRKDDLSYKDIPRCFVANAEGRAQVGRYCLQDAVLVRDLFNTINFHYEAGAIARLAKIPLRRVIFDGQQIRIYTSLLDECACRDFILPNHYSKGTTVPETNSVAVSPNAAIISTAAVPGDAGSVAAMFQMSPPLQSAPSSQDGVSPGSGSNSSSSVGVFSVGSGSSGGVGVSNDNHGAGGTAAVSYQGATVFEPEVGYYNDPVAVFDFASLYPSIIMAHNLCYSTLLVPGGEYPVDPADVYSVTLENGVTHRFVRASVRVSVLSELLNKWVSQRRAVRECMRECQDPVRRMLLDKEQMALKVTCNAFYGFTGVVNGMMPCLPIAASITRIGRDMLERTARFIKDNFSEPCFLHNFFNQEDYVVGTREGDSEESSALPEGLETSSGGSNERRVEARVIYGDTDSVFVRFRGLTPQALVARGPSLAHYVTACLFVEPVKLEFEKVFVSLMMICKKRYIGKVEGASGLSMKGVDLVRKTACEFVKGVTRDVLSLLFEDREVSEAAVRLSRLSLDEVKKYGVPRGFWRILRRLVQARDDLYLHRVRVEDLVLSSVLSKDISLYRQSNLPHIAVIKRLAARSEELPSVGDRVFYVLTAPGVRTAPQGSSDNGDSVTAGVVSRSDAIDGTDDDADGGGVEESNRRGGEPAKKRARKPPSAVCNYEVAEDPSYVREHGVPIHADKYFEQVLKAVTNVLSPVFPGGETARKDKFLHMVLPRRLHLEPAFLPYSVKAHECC
HSV polymerase, sequence (P04293 whole entry): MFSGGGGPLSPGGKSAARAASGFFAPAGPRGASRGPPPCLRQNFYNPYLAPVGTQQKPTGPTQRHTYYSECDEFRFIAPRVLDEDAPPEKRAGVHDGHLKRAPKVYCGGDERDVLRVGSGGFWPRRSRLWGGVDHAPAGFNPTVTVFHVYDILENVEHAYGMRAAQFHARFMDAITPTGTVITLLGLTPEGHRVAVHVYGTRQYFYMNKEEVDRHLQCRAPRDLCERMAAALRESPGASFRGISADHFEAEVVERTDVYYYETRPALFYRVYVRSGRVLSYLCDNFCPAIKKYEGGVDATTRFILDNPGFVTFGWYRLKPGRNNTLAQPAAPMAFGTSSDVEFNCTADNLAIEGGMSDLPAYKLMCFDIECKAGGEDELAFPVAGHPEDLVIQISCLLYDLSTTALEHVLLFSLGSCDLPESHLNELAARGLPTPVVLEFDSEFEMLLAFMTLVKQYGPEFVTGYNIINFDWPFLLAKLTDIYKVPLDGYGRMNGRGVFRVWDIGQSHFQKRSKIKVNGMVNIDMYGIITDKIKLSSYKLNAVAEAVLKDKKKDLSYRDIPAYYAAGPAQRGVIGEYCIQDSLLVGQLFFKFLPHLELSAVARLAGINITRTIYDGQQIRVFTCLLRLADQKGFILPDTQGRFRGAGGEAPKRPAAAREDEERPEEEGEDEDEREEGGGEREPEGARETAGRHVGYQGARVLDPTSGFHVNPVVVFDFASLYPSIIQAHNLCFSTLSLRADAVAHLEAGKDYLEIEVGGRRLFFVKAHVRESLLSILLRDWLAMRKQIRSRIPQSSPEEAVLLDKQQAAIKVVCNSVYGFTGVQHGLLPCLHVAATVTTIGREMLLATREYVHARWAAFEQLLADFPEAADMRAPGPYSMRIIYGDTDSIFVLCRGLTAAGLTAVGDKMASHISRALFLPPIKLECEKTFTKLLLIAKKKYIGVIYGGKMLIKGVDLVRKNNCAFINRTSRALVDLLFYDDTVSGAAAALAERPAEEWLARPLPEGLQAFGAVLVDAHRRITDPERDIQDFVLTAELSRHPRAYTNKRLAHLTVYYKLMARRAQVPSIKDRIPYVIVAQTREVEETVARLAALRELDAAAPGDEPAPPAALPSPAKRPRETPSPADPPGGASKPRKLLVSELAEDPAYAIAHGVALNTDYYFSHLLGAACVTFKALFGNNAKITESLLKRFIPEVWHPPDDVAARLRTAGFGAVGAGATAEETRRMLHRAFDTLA
VZV polymerase, sequence (P09252 whole entry): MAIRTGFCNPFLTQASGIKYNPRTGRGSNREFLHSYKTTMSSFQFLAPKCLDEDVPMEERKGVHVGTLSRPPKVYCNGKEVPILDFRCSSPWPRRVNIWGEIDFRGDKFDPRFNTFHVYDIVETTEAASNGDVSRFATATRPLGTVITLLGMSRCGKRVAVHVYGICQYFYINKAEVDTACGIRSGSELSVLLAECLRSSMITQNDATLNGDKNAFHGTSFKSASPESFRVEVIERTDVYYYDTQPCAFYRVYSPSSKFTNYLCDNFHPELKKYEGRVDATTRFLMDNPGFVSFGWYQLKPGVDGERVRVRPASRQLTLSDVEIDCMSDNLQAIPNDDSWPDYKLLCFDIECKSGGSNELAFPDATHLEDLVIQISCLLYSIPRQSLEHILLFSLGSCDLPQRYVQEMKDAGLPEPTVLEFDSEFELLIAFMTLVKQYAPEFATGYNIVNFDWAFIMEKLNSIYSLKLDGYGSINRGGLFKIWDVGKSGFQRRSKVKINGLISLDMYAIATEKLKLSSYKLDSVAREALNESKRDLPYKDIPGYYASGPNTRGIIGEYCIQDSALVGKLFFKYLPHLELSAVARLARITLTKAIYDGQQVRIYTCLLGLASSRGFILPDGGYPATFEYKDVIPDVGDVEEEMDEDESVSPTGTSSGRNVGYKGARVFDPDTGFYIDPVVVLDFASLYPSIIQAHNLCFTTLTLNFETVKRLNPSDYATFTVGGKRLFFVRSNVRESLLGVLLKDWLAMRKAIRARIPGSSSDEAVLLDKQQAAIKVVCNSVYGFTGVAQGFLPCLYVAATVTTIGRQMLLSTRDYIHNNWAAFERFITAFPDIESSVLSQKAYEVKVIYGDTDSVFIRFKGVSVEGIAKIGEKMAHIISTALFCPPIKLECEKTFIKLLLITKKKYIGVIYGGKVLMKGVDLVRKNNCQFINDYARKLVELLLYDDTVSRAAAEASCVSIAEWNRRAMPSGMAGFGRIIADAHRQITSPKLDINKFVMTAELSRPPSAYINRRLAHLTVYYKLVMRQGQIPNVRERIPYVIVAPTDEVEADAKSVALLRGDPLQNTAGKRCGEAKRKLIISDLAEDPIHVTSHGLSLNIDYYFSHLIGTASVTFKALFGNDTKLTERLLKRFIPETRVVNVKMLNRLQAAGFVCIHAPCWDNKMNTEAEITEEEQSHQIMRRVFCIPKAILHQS

| Structure (SMILES) | IC50 (HCMV polymerase; [1]) [nM] | IC50 (HSV polymerase; [2]) [nM] | IC50 (VZV polymerase; [3]) [nM] | also measured |
| --- | --- | --- | --- | --- |
| CN(Cc1cc2c(=O)c(C(=O)NCc3ccc(Cl)cc3)cn(C)c2s1)CC(O)c1ccc(C#N)s1 (racemic) [Example 15, rac-N-(4-Chlorobenzyl)-2-(((2-(5-cyanothien-2-yl)-2-hydroxyethyl)(methyl)-amino)methyl)-7-methyl-4-oxo-4,7-dihydrothieno[2,3-b]pyridine-5-carboxamide] | 240 | – | – | melting point: 155 to 160 °C (dec.) |
| CN(Cc1cc2c(=O)c(C(=O)NCc3ccc(Cl)cc3)cn(C)c2s1)CC(O)c1ncc[nH]1 (racemic) [Example 36, rac-N-(4-Chlorobenzyl)-2-(((2-hydroxy-2-(1H-imidazol-2-yl)ethyl)(methyl)-amino)methyl)-7-methyl-4-oxo-4,7-dihydrothieno[2,3-b]pyridine-5-carboxamide] | 830 | – | – | melting point: 177.9 to 179.5 °C |
| CN(Cc1cc2c(=O)c(C(=O)NCc3ccc(Cl)cc3)cn(C)c2s1)CC(O)c1cccs1 (racemic) [Example 6, rac-N-(4-Chlorobenzyl)-2-(((2-hydroxy-2-thien-2-ylethyl)(methyl)amino)methyl)-7-methyl-4-oxo-4,7-dihydrothieno[2,3-b]pyridine-5-carboxamide] | 170 | 470 | 150 | – |
| CN(Cc1cc2c(=O)c(C(=O)NCc3ccc(Cl)cc3)cn(C)c2s1)C[C@@H](O)c1ccn[nH]1 (single isomer, unassigned) [Example 19] | 210 | 780 | 290 | – |
| CN(Cc1cc2c(=O)c(C(=O)NCc3ccc(Cl)cc3)cn(C)c2s1)CC(O)c1ccc(Cl)o1 (centres unmarked) [Example 33, N-(4-Chlorobenzyl)-2-(((2-(5-chloro-2-furyl)-2-hydroxyethyl)(methyl)amino)-methyl)-7-methyl-4-oxo-4,7-dihydrothieno[2,3-b]pyridine-5-carboxamide] | 20 | 80 | – | – |
| CN(Cc1cc2c(=O)c(C(=O)NCc3ccc(Cl)cc3)cn(CCOCCO)c2s1)C[C@@H](O)c1ccco1 [Example 35, N-(4-Chlorobenzyl)-2-((((2R)-2-(2-furyl)-2-hydroxyethyl)(methyl)amino)methyl)-7-(2-(2-hydroxyethoxy)ethyl)-4-oxo-4,7-dihydrothieno[2,3-b]pyridine-5-carboxamide] | 560 | – | – | – |
| CN(Cc1cc2c(=O)c(C(=O)NCc3ccc(Cl)cc3)cn(C)c2s1)CC(O)c1cn(C)cn1 (racemic) [Example 9, rac-N-(4-Chlorobenzyl)-2-(((2-hydroxy-2-(1-methyl-1H-imidazol-4-yl)ethyl) (methyl)amino)methyl)-7-methyl-4-oxo-4,7-dihydrothieno[2,3-b]pyridine-5-carboxamide] | 1060 | – | – | melting point: 124 to 130 °C |
| CN(Cc1cc2c(=O)c(C(=O)NCc3ccc(Cl)cc3)cn(CC(O)CO)c2s1)C[C@@H](O)c1ccco1 (stereo partly drawn) [Example 26, N-(4-Chlorobenzyl)-7-(2,3-dihydroxypropyl)-2-((((2R)-2-(2-furyl)-2-hydroxy-ethyl)(methyl)amino)methyl)-4-oxo-4,7-dihydrothieno[2,3-b]pyridine-5-carboxamide] | 150 | 540 | 330 | – |
| CN(Cc1cc2c(=O)c(C(=O)NCc3ccc(Cl)cc3)cn(CCCO)c2s1)C[C@@H](O)c1ccco1 [Example 27, N-(4-Chlorobenzyl)-2-((((2R)-2-(2-furyl)-2-hydroxyethyl)(methyl)amino)methyl)-7-(3-hydroxypropyl)-4-oxo-4,7-dihydrothieno[2,3-b]pyridine-5-carboxamide] | – | – | – | IC50 (HCMV polymerase): 360 nM; IC50 (HSV polymerase): 590 nM; IC50 (VZV polymerase): 280 nM |
| CCn1cc(C(=O)NCc2ccc(Cl)cc2)c(=O)c2cc(CN(C)CC(O)c3cc4ccccc4o3)sc21 (racemic) [Example 22, rac-2-(((2-(1-Benzofuran-2-yl)-2-hydroxyethyl)(methyl)amino)methyl)-N-(4-chlorobenzyl)-7-ethyl-4-oxo-4,7-dihydrothieno[2,3-b]pyridine-5-carboxamide] | 90 | 170 | 80 | – |
| CN(Cc1cc2c(=O)c(C(=O)NCc3ccc(Cl)cc3)cn(CCO)c2s1)C[C@@H](O)c1ccco1 [Example 34, N-(4-Chlorobenzyl)-2-((((2R)-2-(2-furyl)-2-hydroxyethyl)(methyl)amino)methyl)-7-(2-hydroxyethyl)-4-oxo-4,7-dihydrothieno[2,3-b]pyridine-5-carboxamide] | 240 | 1080 | 340 | – |
| CN(Cc1cc2c(=O)c(C(=O)NCc3ccc(Cl)cc3)cn(C)c2s1)C[C@@H](O)c1ccco1 [Example 2, (+)—N-(4-Chlorobenzyl)-2-((((R)-2-(2-furyl)-2-hydroxyethyl)(methyl)amino)-methyl)-7-methyl-4-oxo-4,7-dihydrothieno [2,3-b]pyridine-5-carboxamide] | 40 | 90 | 30 | – |
| CCCn1cc(C(=O)NCc2ccc(Cl)cc2)c(=O)c2cc(CN(C)CC(O)c3cc4ccccc4o3)sc21 (racemic) [Example 23, rac-2-(((2-(1-Benzofuran-2-yl)-2-hydroxyethyl)(methyl)amino)methyl)-N-(4-chlorobenzyl)-7-propyl-4-oxo-4,7-dihydrothieno[2,3-b]pyridine-5-carboxamide] | 260 | – | – | – |
| CN(Cc1cc2c(=O)c(C(=O)NCc3ccc(Cl)cc3)cn(CCO)c2s1)CC(O)c1cc2ccccc2o1 (racemic) [Example 29, rac-2-(((2-(1-Benzofuran-2-yl)-2-hydroxyethyl)(methyl)amino)methyl)-N-(4-chlorobenzyl)-7-(2-hydroxyethyl)-4-oxo-4,7-dihydrothieno[2,3-b]pyridine-5-carboxamide] | 600 | – | – | – |
| CN(Cc1cc2c(=O)c(C(=O)NCc3ccc(Cl)cc3)cn(C)c2s1)CC(O)c1ccco1 (racemic) [Example 1, rac-N-(4-Chlorobenzyl)-2-(((2-(2-furyl)-2-hydroxyethyl)(methyl)amino)methyl)-7-methyl-4-oxo-4,7-dihydrothieno[2,3-b]pyridine-5-carboxamide] | 80 | 220 | 60 | – |
| CN(Cc1cc2c(=O)c(C(=O)NCc3ccc(Cl)cc3)cn(CC(O)CO)c2s1)CC(O)c1cc2ccccc2o1 (racemic) [Example 25, rac-2-(((2-(1-Benzofuran-2-yl)-2-hydroxyethyl)(methyl)amino)methyl)-N-(4-chlorobenzyl)-7-(2,3-dihydroxypropyl)-4-oxo-4,7-dihydrothieno[2,3-b]pyridine-5-carboxamide] | 1800 | – | – | – |
| COCCn1cc(C(=O)NCc2ccc(Cl)cc2)c(=O)c2cc(CN(C)C[C@@H](O)c3ccco3)sc21 [Example 21, N-(4-Chlorobenzyl)-2-((((2R)-2-(2-furyl)-2-hydroxyethyl)(methyl)amino)methyl)-7-(2-methoxyethyl)-4-oxo-4,7-dihydrothieno[2,3-b]pyridine-5-carboxamide] | 350 | – | – | – |
| CCCn1cc(C(=O)NCc2ccc(Cl)cc2)c(=O)c2cc(CN(C)C[C@@H](O)c3ccco3)sc21 [Example 32, N-(4-Chlorobenzyl)-2-((((2R)-2-(2-furyl)-2-hydroxyethyl)(methyl)amino)methyl)-4-oxo-7-propyl-4,7-dihydrothieno[2,3-b]pyridine-5-carboxamide] | 180 | 740 | 220 | – |
| CN(Cc1cc2c(=O)c(C(=O)NCc3ccc(Cl)cc3)cn(C)c2s1)CC(O)c1nc2ccccc2s1 (racemic) [Example 17, rac-2-(((2-(1,3-Benzothiazol-2-yl)-2-hydroxyethyl)(methyl)amino)methyl)-N-(4-chlorobenzyl)-7-methyl-4-oxo-4,7-dihydrothieno[2,3-b]pyridine-5-carboxamide] | 120 | 390 | 110 | – |
| CN(Cc1cc2c(=O)c(C(=O)NCc3ccc(Cl)cc3)cn(CCCO)c2s1)CC(O)c1cc2ccccc2o1 (racemic) [Example 28, rac-2-(((2-(1-Benzofuran-2-yl)-2-hydroxyethyl)(methyl)amino)methyl)-N-(4-chlorobenzyl)-7-(3-hydroxypropyl)-4-oxo-4,7-dihydrothieno[2,3-b]pyridine-5-carboxamide] | – | – | – | IC50 (HCMV polymerase): 300 nM |
